Columns and labels:
Experiment in all cases: Test B pre-/postemergence plant response
Format in all cases: in vivo
[1] = test system: lambsquarters (Chenopodium album); conditions: for Lambsquarters plant response rating (0 to 100 scale): 62 g ai/ha, 0 is no effect, 13 to 15 days
Procedure, shortened: (§1)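 Visual injury, 0–100 scale (100 = complete control), rated against controls after 13 to 15 days in greenhouse. Pre-emergence: seeds in loam/sand soil, treated at planting. Post-emergence: 1- to 4-leaf plants (2 to 18 cm) in peat/vermiculite medium. Compounds formulated in non-phytotoxic solvent with surfactant.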

[2] = test system: kochia (Kochia scoparia); conditions: for Kochia plant response rating (0 to 100 scale): 62 g ai/ha, 0 is no effect, 13 to 15 days
Procedure, shortened: as §1

[3] = test system: pigweed (Amaranthus retroflexus); conditions: for Pigweed plant response rating (0 to 100 scale): 62 g ai/ha, 0 is no effect, 13 to 15 days
Procedure, shortened: as §1

[4] = test system: morningglory (Ipomoea coccinea); conditions: for Morningglory plant response rating (0 to 100 scale): 62 g ai/ha, 0 is no effect, 13 to 15 days
Procedure, shortened: as §1

[5] = test system: velvetleaf (Abutilon theophrasti); conditions: for Velvetleaf plant response rating (0 to 100 scale): 62 g ai/ha, 0 is no effect, 13 to 15 days
Procedure, shortened: as §1

[6] = test system: green foxtail (Setaria viridis); conditions: for Foxtail, Green plant response rating (0 to 100 scale): 62 g ai/ha, 0 is no effect, 13 to 15 days
Procedure, shortened: as §1

[7] = test system: large crabgrass (Digitaria sanguinalis); conditions: for Crabgrass, Large plant response rating (0 to 100 scale): 62 g ai/ha, 0 is no effect, 13 to 15 days
Procedure, shortened: as §1

[8] = test system: soybean (Glycine max); conditions: for Soybean plant response rating (0 to 100 scale): 62 g ai/ha, 0 is no effect, 13 to 15 days
Procedure, shortened: as §1

[9] = test system: corn (Zea mays); conditions: for Corn plant response rating (0 to 100 scale): 62 g ai/ha, 0 is no effect, 13 to 15 days
Procedure, shortened: as §1

[10] = test system: downy bromegrass (Bromus tectorum); conditions: for Bromegrass, Downy plant response rating (0 to 100 scale): 62 g ai/ha, 0 is no effect, 13 to 15 days
Procedure, shortened: as §1

[11] = test system: yellow nutsedge (Cyperus esculentus); conditions: for Nutsedge, Yellow plant response rating (0 to 100 scale): 62 g ai/ha, 0 is no effect, 13 to 15 days
Procedure, shortened: as §1

[12] = test system: goosegrass (Eleusine indica); conditions: for Goosegrass plant response rating (0 to 100 scale): 62 g ai/ha, 0 is no effect, 13 to 15 days
Procedure, shortened: as §1

[13] = test system: woolly cupgrass (Eriochloa villosa); conditions: for Cupgrass, Woolly plant response rating (0 to 100 scale): 62 g ai/ha, 0 is no effect, 13 to 15 days
Procedure, shortened: as §1

[14] = test system: blackgrass (Alopecurus myosuroides); conditions: for Blackgrass plant response rating (0 to 100 scale): 62 g ai/ha, 0 is no effect, 13 to 15 days
Procedure, shortened: as §1

[15] = test system: Surinam grass (Brachiaria decumbens); conditions: for Surinam Grass plant response rating (0 to 100 scale): 62 g ai/ha, 0 is no effect, 13 to 15 days
Procedure, shortened: as §1

[16] = test system: wild oat (Avena fatua); conditions: for Oat, Wild plant response rating (0 to 100 scale): 62 g ai/ha, 0 is no effect, 13 to 15 days
Procedure, shortened: as §1

[17] = test system: johnsongrass (Sorghum halepense); conditions: for Johnsongrass plant response rating (0 to 100 scale): 62 g ai/ha, 0 is no effect, 13 to 15 days
Procedure, shortened: as §1

[18] = 31 g ai/ha, postemergence, scale 0 to 100, 0 is no effect, 100 is complete control
[19] = postemergence, 100 is complete control
[20] = Postemergence, 250 g ai/ha, scale 0 to 100 (0 no effect, 100 complete control)
[21] = Postemergence, 125 g ai/ha, visual rating after 13 to 15 days, scale 0 (no effect) to 100 (complete control)
[22] = Postemergence, 125 g ai/ha, scale 0 to 100 (0 no effect, 100 complete control)

SMILES: O=C1CCCC(O)=C1C(=O)c1cnc(C2CCCC2)n(-c2ccccc2)c1=O [Compound 92]
- Plant response rating, Lambsquarters [1, 18]: 90
- Lambsquarters plant response rating (0 to 100 scale) [1, 19]: 98
- Plant response rating, Lambsquarters [1, 20]: 100
- Plant response rating, Kochia [2, 18]: 75
- Kochia plant response rating (0 to 100 scale) [2, 19]: 90
- Plant response rating, Kochia [2, 20]: 100
- Plant response rating, Pigweed [3, 18]: 90
- Pigweed plant response rating (0 to 100 scale) [3, 19]: 100
- Plant response rating, Pigweed [3, 20]: 100
- Plant response rating, Morningglory [4, 18]: 80
- Morningglory plant response rating (0 to 100 scale) [4, 19]: 95
- Plant response rating, Morningglory [4, 20]: 100
- Plant response rating, Velvetleaf [5, 18]: 95
- Velvetleaf plant response rating (0 to 100 scale) [5, 19]: 100
- Plant response rating, Velvetleaf [5, 20]: 100
- Plant response rating, Foxtail, Green [6, 18]: 75
- Foxtail, Green plant response rating (0 to 100 scale) [6, 19]: 80
- Plant response rating, Foxtail, Green [6, 20]: 98
- Plant response rating, Crabgrass, Large [7, 18]: 80
- Crabgrass, Large plant response rating (0 to 100 scale) [7, 19]: 90
- Plant response rating, Crabgrass, Large [7, 21]: 98
- Plant response rating, Crabgrass, Large [7, 20]: 100
- Plant response rating, Soybean [8, 18]: 90
- Soybean plant response rating (0 to 100 scale) [8, 19]: 98
- Plant response rating, Soybean [8, 20]: 98
- Plant response rating, Corn [9, 18]: 20
- Corn plant response rating (0 to 100 scale) [9, 19]: 35
- Plant response rating, Corn [9, 21]: 45
- Plant response rating, Corn [9, 20]: 60
- Plant response rating, Bromegrass, Downy [10, 18]: 0
- Bromegrass, Downy plant response rating (0 to 100 scale) [10, 19]: 5
- Plant response rating, Bromegrass, Downy [10, 21]: 20
- Plant response rating, Bromegrass, Downy [10, 20]: 20
- Plant response rating, Nutsedge, Yellow [11, 18]: 45
- Nutsedge, Yellow plant response rating (0 to 100 scale) [11, 19]: 65
- Plant response rating, Nutsedge, Yellow [11, 20]: 75
- Plant response rating, Goosegrass [12, 18]: 60
- Goosegrass plant response rating (0 to 100 scale) [12, 19]: 70
- Plant response rating, Goosegrass [12, 20]: 90
- Plant response rating, Cupgrass, Woolly [13, 18]: 10
- Cupgrass, Woolly plant response rating (0 to 100 scale) [13, 19]: 25
- Plant response rating, Cupgrass, Woolly [13, 21]: 65
- Plant response rating, Cupgrass, Woolly [13, 20]: 70
- Plant response rating, Blackgrass [14, 18]: 0
- Blackgrass plant response rating (0 to 100 scale) [14, 19]: 0
- Plant response rating, Blackgrass [14, 21]: 5
- Plant response rating, Blackgrass [14, 20]: 5
- Plant response rating, Surinam Grass [15, 18]: 25
- Surinam Grass plant response rating (0 to 100 scale) [15, 19]: 65
- Plant response rating, Surinam Grass [15, 20]: 75
- Plant response rating, Oat, Wild [16, 18]: 0
- Oat, Wild plant response rating (0 to 100 scale) [16, 19]: 5
- Plant response rating, Oat, Wild [16, 20]: 10
- Plant response rating, Johnsongrass [17, 18]: 20
- Johnsongrass plant response rating (0 to 100 scale) [17, 19]: 85
- Plant response rating, Johnsongrass [17, 20]: 100

SMILES: COCCn1c(-c2cccs2)ncc(C(=O)C2=C(O)CCCC2=O)c1=O [Compound 108]
- Plant response rating, Lambsquarters [1, 18]: 98
- Lambsquarters plant response rating (0 to 100 scale) [1, 19]: 98
- Plant response rating, Lambsquarters [1, 22]: 100
- Plant response rating, Lambsquarters [1, 20]: 100
- Plant response rating, Kochia [2, 18]: 70
- Kochia plant response rating (0 to 100 scale) [2, 19]: 95
- Plant response rating, Kochia [2, 22]: 98
- Plant response rating, Kochia [2, 20]: 100
- Plant response rating, Pigweed [3, 18]: 95
- Pigweed plant response rating (0 to 100 scale) [3, 19]: 98
- Plant response rating, Pigweed [3, 22]: 100
- Plant response rating, Pigweed [3, 20]: 100
- Plant response rating, Morningglory [4, 18]: 75
- Morningglory plant response rating (0 to 100 scale) [4, 19]: 90
- Plant response rating, Morningglory [4, 22]: 100
- Plant response rating, Morningglory [4, 20]: 100
- Velvetleaf plant response rating (0 to 100 scale) [5, 19]: 100
- Plant response rating, Velvetleaf [5, 22]: 100
- Plant response rating, Velvetleaf [5, 20]: 100
- Plant response rating, Foxtail, Green [6, 18]: 5
- Foxtail, Green plant response rating (0 to 100 scale) [6, 19]: 30
- Plant response rating, Foxtail, Green [6, 22]: 80
- Plant response rating, Foxtail, Green [6, 20]: 80
- Plant response rating, Crabgrass, Large [7, 18]: 60
- Crabgrass, Large plant response rating (0 to 100 scale) [7, 19]: 70
- Plant response rating, Crabgrass, Large [7, 22]: 75
- Plant response rating, Crabgrass, Large [7, 20]: 85
- Soybean plant response rating (0 to 100 scale) [8, 19]: 55
- Plant response rating, Soybean [8, 22]: 65
- Plant response rating, Soybean [8, 20]: 85
- Plant response rating, Corn [9, 18]: 15
- Corn plant response rating (0 to 100 scale) [9, 19]: 35
- Plant response rating, Corn [9, 22]: 50
- Plant response rating, Corn [9, 20]: 65
- Plant response rating, Bromegrass, Downy [10, 18]: 0
- Bromegrass, Downy plant response rating (0 to 100 scale) [10, 19]: 0
- Plant response rating, Bromegrass, Downy [10, 22]: 5
- Plant response rating, Bromegrass, Downy [10, 20]: 5
- Plant response rating, Nutsedge, Yellow [11, 18]: 50
- Nutsedge, Yellow plant response rating (0 to 100 scale) [11, 19]: 75
- Plant response rating, Nutsedge, Yellow [11, 22]: 80
- Plant response rating, Nutsedge, Yellow [11, 20]: 85
- Plant response rating, Goosegrass [12, 18]: 60
- Goosegrass plant response rating (0 to 100 scale) [12, 19]: 70
- Plant response rating, Goosegrass [12, 22]: 75
- Plant response rating, Goosegrass [12, 20]: 85
- Plant response rating, Cupgrass, Woolly [13, 18]: 40
- Cupgrass, Woolly plant response rating (0 to 100 scale) [13, 19]: 60
- Plant response rating, Cupgrass, Woolly [13, 22]: 70
- Plant response rating, Cupgrass, Woolly [13, 20]: 75
- Plant response rating, Blackgrass [14, 18]: 0
- Blackgrass plant response rating (0 to 100 scale) [14, 19]: 5
- Plant response rating, Blackgrass [14, 22]: 20
- Plant response rating, Blackgrass [14, 20]: 30
- Surinam Grass plant response rating (0 to 100 scale) [15, 19]: 60
- Plant response rating, Surinam Grass [15, 22]: 65
- Plant response rating, Surinam Grass [15, 20]: 80
- Plant response rating, Oat, Wild [16, 18]: 0
- Oat, Wild plant response rating (0 to 100 scale) [16, 19]: 0
- Plant response rating, Oat, Wild [16, 22]: 0
- Plant response rating, Oat, Wild [16, 20]: 0
- Plant response rating, Johnsongrass [17, 18]: 10
- Johnsongrass plant response rating (0 to 100 scale) [17, 19]: 20
- Plant response rating, Johnsongrass [17, 22]: 20
- Plant response rating, Johnsongrass [17, 20]: 60

Reference: US8952024B2, “Herbicidal pyrimidone derivatives” (E I du Pont de Nemours and Company, priority 2009, dated 2015)
